Reference: US20020026053A1, “Novel 3-(substituted) -2- indolinones compounds and use thereof as inhibitors of protein kinase activity” (priority 1997, published 2002)

Target: T1, Met receptor (EGFR/Met chimeric cells, EMR) (Homo sapiens, UniProt P08581)
T1 construct: expressed in transfected cells; the other entry of the earlier key: EGFR (P00533, Epidermal growth factor receptor)
Test: Met Autophosphorylation Assay
Type: biochemical
Conditions: protocol P.130
How it was run: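 Transiently transfected EGFR/Met chimeric (EMR) cells were lysed in HNTG with 1 mM PMSF. Met was captured on plates coated with goat anti-rabbit IgG, then rabbit anti-Met (C-28), using 90 μg lysate/100 μl for 60 min at room temperature. Phosphotyrosine was read by ELISA.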

T1 sequence (P08581 with tags, fused parts or gaps): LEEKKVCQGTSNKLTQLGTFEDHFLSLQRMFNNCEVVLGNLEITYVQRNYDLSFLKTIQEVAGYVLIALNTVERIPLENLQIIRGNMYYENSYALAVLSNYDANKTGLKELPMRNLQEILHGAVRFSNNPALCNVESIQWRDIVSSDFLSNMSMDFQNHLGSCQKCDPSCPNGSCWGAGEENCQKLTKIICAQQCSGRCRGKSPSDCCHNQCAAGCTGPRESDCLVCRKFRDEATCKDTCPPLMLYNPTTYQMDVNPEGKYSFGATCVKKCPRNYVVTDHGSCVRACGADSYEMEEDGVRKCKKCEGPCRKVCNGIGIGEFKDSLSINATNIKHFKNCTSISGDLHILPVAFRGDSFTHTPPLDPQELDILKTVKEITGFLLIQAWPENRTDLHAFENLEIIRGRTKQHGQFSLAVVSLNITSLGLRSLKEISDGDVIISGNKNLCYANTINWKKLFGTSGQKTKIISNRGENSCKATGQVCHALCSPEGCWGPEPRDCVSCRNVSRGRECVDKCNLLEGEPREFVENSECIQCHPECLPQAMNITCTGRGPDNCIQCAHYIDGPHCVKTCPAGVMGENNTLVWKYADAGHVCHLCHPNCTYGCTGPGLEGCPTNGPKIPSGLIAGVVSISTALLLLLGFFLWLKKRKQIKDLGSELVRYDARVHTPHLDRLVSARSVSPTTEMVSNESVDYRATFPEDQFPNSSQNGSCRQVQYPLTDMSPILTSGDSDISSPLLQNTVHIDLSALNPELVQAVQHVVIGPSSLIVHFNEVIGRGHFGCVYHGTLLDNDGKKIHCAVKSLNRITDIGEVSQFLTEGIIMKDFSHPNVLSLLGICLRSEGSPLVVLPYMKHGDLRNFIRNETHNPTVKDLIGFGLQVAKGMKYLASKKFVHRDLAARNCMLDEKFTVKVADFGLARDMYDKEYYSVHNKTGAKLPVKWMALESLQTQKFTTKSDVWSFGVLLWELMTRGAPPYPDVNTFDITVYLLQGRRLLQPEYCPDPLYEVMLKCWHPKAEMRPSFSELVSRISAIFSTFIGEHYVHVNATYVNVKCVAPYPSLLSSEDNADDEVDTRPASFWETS

## COC1CCCN1C=C1C(=O)Nc2c(Br)cc(Br)cc21 (racemic) [10740/A04]
  Met Kinase % Inhibition (P.130): 48.2%

## COC1CCCN1C=C1C(=O)Nc2ccc(I)cc21 (racemic) [10740/B04]
  Met Kinase % Inhibition (P.130): 76.7%

## Cc1c(Br)cc(Br)c2c1C(=Cc1ccc(CO)o1)C(=O)N2 [10739/H11]
  Met Kinase % Inhibition (P.130): 75.8%

## O=C1Nc2c(Br)cc(Br)cc2C1=Cc1cnc2ccccc2c1 [10740/A02]
  Met Kinase % Inhibition (P.130): 56.3%

## O=C1Nc2c(Br)cc(Br)cc2C1=Cc1ccnc2ccccc12 [10740/A03]
  Met Kinase % Inhibition (P.130): 77.8%

## O=C1Nc2c(Br)cc(Br)cc2C1=Cc1ccsc1 [10740/A05]
  Met Kinase % Inhibition (P.130): 79.5%

## O=C1Nc2c(Br)cc(Br)cc2C1=Cc1ccc2ccccc2n1 [10740/A06]
  Met Kinase % Inhibition (P.130): 48.5%

## Cn1cc(C=C2C(=O)Nc3c(Br)cc(Br)cc32)c2ccccc21 [10740/A07]
  Met Kinase % Inhibition (P.130): 54.9%

## Cc1[nH]c2ccccc2c1C=C1C(=O)Nc2c(Br)cc(Br)cc21 [10740/A08]
  Met Kinase % Inhibition (P.130): 43.2%

## O=C1Nc2c(Br)cc(Br)cc2C1=Cc1cc(Br)cs1 [10740/A10]
  Met Kinase % Inhibition (P.130): 45.1%

## CCCCOc1ccc(C=C2C(=O)Nc3c(Br)cc(Br)cc32)cc1 [10740/A11]
  Met Kinase % Inhibition (P.130): 30.3%

## O=C1Nc2ccc(I)cc2C1=Cc1cnc2ccccc2c1 [10740/B02]
  Met Kinase % Inhibition (P.130): 79.2%

## O=C1Nc2ccc(I)cc2C1=Cc1ccnc2ccccc12 [10740/B03]
  Met Kinase % Inhibition (P.130): 84.8%

## O=C1Nc2ccc(I)cc2C1=Cc1ccsc1 [10740/B05]
  Met Kinase % Inhibition (P.130): 82.3%

## O=C1Nc2ccc(I)cc2C1=Cc1ccc2ccccc2n1 [10740/B06]
  Met Kinase % Inhibition (P.130): 68.9%

## Cn1cc(C=C2C(=O)Nc3ccc(I)cc32)c2ccccc21 [10740/B07]
  Met Kinase % Inhibition (P.130): 73.7%

## Cc1[nH]c2ccccc2c1C=C1C(=O)Nc2ccc(I)cc21 [10740/B08]
  Met Kinase % Inhibition (P.130): 65.0%

## O=C1Nc2ccc(I)cc2C1=Cc1cc(Br)cs1 [10740/B10]
  Met Kinase % Inhibition (P.130): 58.0%

## CCCCOc1ccc(C=C2C(=O)Nc3ccc(I)cc32)cc1 [10740/B11]
  Met Kinase % Inhibition (P.130): 68.6%

## Cc1c(Br)ccc2c1C(=Cc1cnc3ccccc3c1)C(=O)N2 [10740/C02]
  Met Kinase % Inhibition (P.130): 45.1%

## Cc1c(Br)ccc2c1C(=Cc1ccnc3ccccc13)C(=O)N2 [10740/C03]
  Met Kinase % Inhibition (P.130): 63.6%

## COC1CCCN1C=C1C(=O)Nc2ccc(Br)c(C)c21 (stereo not shown) [10740/C04]
  Met Kinase % Inhibition (P.130): −4.9%

## Cc1c(Br)ccc2c1C(=Cc1ccsc1)C(=O)N2 [10740/C05]
  Met Kinase % Inhibition (P.130): 66.1%

## Cc1c(Br)ccc2c1C(=Cc1ccc3ccccc3n1)C(=O)N2 [10740/C06]
  Met Kinase % Inhibition (P.130): 49.3%

## Cc1c(Br)ccc2c1C(=Cc1cn(C)c3ccccc13)C(=O)N2 [10740/C07]
  Met Kinase % Inhibition (P.130): 44.3%

## Cc1[nH]c2ccccc2c1C=C1C(=O)Nc2ccc(Br)c(C)c21 [10740/C08]
  Met Kinase % Inhibition (P.130): 28.7%

## Cc1c(Br)ccc2c1C(=Cc1cc(Br)cs1)C(=O)N2 [10740/C10]
  Met Kinase % Inhibition (P.130): −1.8%

## CCCCOc1ccc(C=C2C(=O)Nc3ccc(Br)c(C)c32)cc1 [10740/C11]
  Met Kinase % Inhibition (P.130): −10.8%

## CNS(=O)(=O)c1ccc2c(c1)C(=Cc1cnc3ccccc3c1)C(=O)N2 [10740/D02]
  Met Kinase % Inhibition (P.130): 49.9%

## CNS(=O)(=O)c1ccc2c(c1)C(=Cc1ccnc3ccccc13)C(=O)N2 [10740/D03]
  Met Kinase % Inhibition (P.130): 64.4%

## CNS(=O)(=O)c1ccc2c(c1)C(=CN1CCCC1OC)C(=O)N2 (stereo not shown) [10740/D04]
  Met Kinase % Inhibition (P.130): 19.4%

## CNS(=O)(=O)c1ccc2c(c1)C(=Cc1ccsc1)C(=O)N2 [10740/D05]
  Met Kinase % Inhibition (P.130): 39.3%

## CNS(=O)(=O)c1ccc2c(c1)C(=Cc1ccc3ccccc3n1)C(=O)N2 [10740/D06]
  Met Kinase % Inhibition (P.130): 41.8%

## CNS(=O)(=O)c1ccc2c(c1)C(=Cc1cn(C)c3ccccc13)C(=O)N2 [10740/D07]
  Met Kinase % Inhibition (P.130): 27.3%

## CNS(=O)(=O)c1ccc2c(c1)C(=Cc1c(C)[nH]c3ccccc13)C(=O)N2 [10740/D08]
  Met Kinase % Inhibition (P.130): 30.3%

## CNS(=O)(=O)c1ccc2c(c1)C(=Cc1cc(Br)cs1)C(=O)N2 [10740/D10]
  Met Kinase % Inhibition (P.130): 16.1%

## CCCCOc1ccc(C=C2C(=O)Nc3ccc(S(=O)(=O)NC)cc32)cc1 [10740/D11]
  Met Kinase % Inhibition (P.130): −9.1%

## O=C1Nc2ccc(S(=O)(=O)Nc3ccc(C(F)(F)F)cc3)cc2C1=Cc1cnc2ccccc2c1 [10740/E02]
  Met Kinase % Inhibition (P.130): 48.2%

## O=C1Nc2ccc(S(=O)(=O)Nc3ccc(C(F)(F)F)cc3)cc2C1=Cc1ccnc2ccccc12 [10740/E03]
  Met Kinase % Inhibition (P.130): 66.4%

## COC1CCCN1C=C1C(=O)Nc2ccc(S(=O)(=O)Nc3ccc(C(F)(F)F)cc3)cc21 (stereo not shown) [10740/E04]
  Met Kinase % Inhibition (P.130): 41.8%

## O=C1Nc2ccc(S(=O)(=O)Nc3ccc(C(F)(F)F)cc3)cc2C1=Cc1ccsc1 [10740/E05]
  Met Kinase % Inhibition (P.130): 75.6%

## O=C1Nc2ccc(S(=O)(=O)Nc3ccc(C(F)(F)F)cc3)cc2C1=Cc1ccc2ccccc2n1 [10740/E06]
  Met Kinase % Inhibition (P.130): 16.6%

## Cn1cc(C=C2C(=O)Nc3ccc(S(=O)(=O)Nc4ccc(C(F)(F)F)cc4)cc32)c2ccccc21 [10740/E07]
  Met Kinase % Inhibition (P.130): 19.7%

## Cc1[nH]c2ccccc2c1C=C1C(=O)Nc2ccc(S(=O)(=O)Nc3ccc(C(F)(F)F)cc3)cc21 [10740/E08]
  Met Kinase % Inhibition (P.130): 39.0%

## O=C1Nc2ccc(S(=O)(=O)Nc3ccc(C(F)(F)F)cc3)cc2C1=Cc1cc(Br)cs1 [10740/E10]
  Met Kinase % Inhibition (P.130): 61.9%

## CCCCOc1ccc(C=C2C(=O)Nc3ccc(S(=O)(=O)Nc4ccc(C(F)(F)F)cc4)cc32)cc1 [10740/E11]
  Met Kinase % Inhibition (P.130): −16.9%

## O=C1Nc2ccc(S(=O)(=O)N3CCOCC3)cc2C1=Cc1cnc2ccccc2c1 [10740/F02]
  Met Kinase % Inhibition (P.130): 59.4%

## O=C1Nc2ccc(S(=O)(=O)N3CCOCC3)cc2C1=Cc1ccnc2ccccc12 [10740/F03]
  Met Kinase % Inhibition (P.130): 32.8%

## COC1CCCN1C=C1C(=O)Nc2ccc(S(=O)(=O)N3CCOCC3)cc21 (stereo not shown) [10740/F04]
  Met Kinase % Inhibition (P.130): −5.2%

## O=C1Nc2ccc(S(=O)(=O)N3CCOCC3)cc2C1=Cc1ccsc1 [10740/F05]
  Met Kinase % Inhibition (P.130): 52.1%

## O=C1Nc2ccc(S(=O)(=O)N3CCOCC3)cc2C1=Cc1ccc2ccccc2n1 [10740/F06]
  Met Kinase % Inhibition (P.130): 25.3%

## Cn1cc(C=C2C(=O)Nc3ccc(S(=O)(=O)N4CCOCC4)cc32)c2ccccc21 [10740/F07]
  Met Kinase % Inhibition (P.130): 28.4%

## Cc1[nH]c2ccccc2c1C=C1C(=O)Nc2ccc(S(=O)(=O)N3CCOCC3)cc21 [10740/F08]
  Met Kinase % Inhibition (P.130): 35.9%

## O=C1Nc2ccc(S(=O)(=O)N3CCOCC3)cc2C1=Cc1cc(Br)cs1 [10740/F10]
  Met Kinase % Inhibition (P.130): 58.3%

## CCCCOc1ccc(C=C2C(=O)Nc3ccc(S(=O)(=O)N4CCOCC4)cc32)cc1 [10740/F11]
  Met Kinase % Inhibition (P.130): 42.9%

## O=C1Nc2ccc(CCCl)cc2C1=Cc1cnc2ccccc2c1 [10740/G02]
  Met Kinase % Inhibition (P.130): 55.2%

## O=C1Nc2ccc(CCCl)cc2C1=Cc1ccnc2ccccc12 [10740/G03]
  Met Kinase % Inhibition (P.130): 34.8%

## COC1CCCN1C=C1C(=O)Nc2ccc(CCCl)cc21 (stereo not shown) [10740/G04]
  Met Kinase % Inhibition (P.130): 9.1%

## O=C1Nc2ccc(CCCl)cc2C1=Cc1ccsc1 [10740/G05]
  Met Kinase % Inhibition (P.130): 30.3%

## O=C1Nc2ccc(CCCl)cc2C1=Cc1ccc2ccccc2n1 [10740/G06]
  Met Kinase % Inhibition (P.130): 25.0%

## Cn1cc(C=C2C(=O)Nc3ccc(CCCl)cc32)c2ccccc21 [10740/G07]
  Met Kinase % Inhibition (P.130): 10.8%

## Cc1[nH]c2ccccc2c1C=C1C(=O)Nc2ccc(CCCl)cc21 [10740/G08]
  Met Kinase % Inhibition (P.130): 33.4%

## O=C1Nc2ccc(CCCl)cc2C1=Cc1cc(Br)cs1 [10740/G10]
  Met Kinase % Inhibition (P.130): 19.4%

## CCCCOc1ccc(C=C2C(=O)Nc3ccc(CCCl)cc32)cc1 [10740/G11]
  Met Kinase % Inhibition (P.130): 13.3%

## Cc1c(Br)cc(Br)c2c1C(=Cc1cnc3ccccc3c1)C(=O)N2 [10740/H02]
  Met Kinase % Inhibition (P.130): 28.7%

## Cc1c(Br)cc(Br)c2c1C(=Cc1ccnc3ccccc13)C(=O)N2 [10740/H03]
  Met Kinase % Inhibition (P.130): 17.5%

## COC1CCCN1C=C1C(=O)Nc2c(Br)cc(Br)c(C)c21 (stereo not shown) [10740/H04]
  Met Kinase % Inhibition (P.130): 30.9%

## Cc1c(Br)cc(Br)c2c1C(=Cc1ccsc1)C(=O)N2 [10740/H05]
  Met Kinase % Inhibition (P.130): 25.6%

## Cc1c(Br)cc(Br)c2c1C(=Cc1ccc3ccccc3n1)C(=O)N2 [10740/H06]
  Met Kinase % Inhibition (P.130): 33.4%

## Cc1c(Br)cc(Br)c2c1C(=Cc1cn(C)c3ccccc13)C(=O)N2 [10740/H07]
  Met Kinase % Inhibition (P.130): 1.5%

## Cc1[nH]c2ccccc2c1C=C1C(=O)Nc2c(Br)cc(Br)c(C)c21 [10740/H08]
  Met Kinase % Inhibition (P.130): 28.1%

## Cc1c(Br)cc(Br)c2c1C(=Cc1cc(Br)cs1)C(=O)N2 [10740/H10]
  Met Kinase % Inhibition (P.130): 43.7%

## CCCCOc1ccc(C=C2C(=O)Nc3c(Br)cc(Br)c(C)c32)cc1 [10740/H11]
  Met Kinase % Inhibition (P.130): 17.2%
